The results in this text go back to US20260007679A1, “METHODS OF TREATING CANCER USING 3-(4-((4-(MORPHOLINOMETHYL)BENZYL)OXY)-1-OXOISOINDOLIN-2-YL)PIPERIDINE-2,6-DIONE” (Celgene Corporation, priority 2012, published 2026).

Like-named read-outs stand apart in the source and are kept apart here.

Assay [1] concerns human peripheral blood mononuclear cells. Nature of the assay: Cytokine profiling in LPS-stimulated hPBMC. The class given is cell-based. The note with it: for IL-10 (% of control) / MCP-1 (% of control) / RANTES (% of control): 0.1 μM concentration; for IC50: Homo sapiens, PBMC, 18 h, LPS 1 ng/ml, 18 hours. How it is done: Fifty ml human buffy coat was aliquoted 25 ml each into two 50 ml conical tubes and 25 ml sterile HBSS was added to each conical tube. The tubes were gently mixed by inverting. Fifteen ml of room temperature Ficoll-Paque Plus (GE Healthcare (location); cat #17-1440-02) was aliquoted into four 50 ml conical tubes. Then 25 ml of the Buffy coat/IBSS mixture was layered gently and slowly on top of the Ficoll. The samples were centrifuged at 450 rpm for 35 minutes. The top layered containing plasma was pipetted off and discarded. The interface containing mononuclear cells was transferred into two 50 ml conical tubes. Both conical tubes were filled to total volume of 50 ml with HBSS and centrifuged at 1200 rpm for 10 minutes. The cells were washed again in HBSS and spun at 1000 rpm for 10 minutes. Cell pellet was resuspended with 20 ml RPMI complete medium (RPMI/5% human sera/1× pen/strep/glut) and counted.
One hundred μl (2×10^6/ml) of hPBMCs were added to each well of a 96 well flat-bottom plate (final cell count=2×10^5/well) and incubated at 37° C. for 1 hour. Twenty μl (10×) compound was added to each test well and twenty μl medium containing 2.5% DMSO was added to each control well ([DMSO]final=0.25%) and plate was incubated for 1 hour at 37° C. Cells were then stimulated with 80 μl of 2.5 ng/ml LPS ([LPS]final=1 ng/ml) and incubated for 18 hours at 37° C. Fifty μl supernatant from each well was transferred into 3 new round-bottomed 96 well plates and stored at −20° C. for Luminex analysis. Duplicate wells were performed for each sample.
Supernatant samples were analyzed for cytokines in multiplex format according to the manufacturer's instructions (Millipore, Billerica, Ma 01821) using a Luminex IS100 instrument. IL-12 and GM-CSF analyses were done in a two-plex format using neat supernatants while all other cytokines were done in a multiplex format using supernatants diluted 1:20. Data analysis was performed using Upstate Beadview software. […] The IC50 were performed using GraphPad Prism v5.00. The data values represent the mean+SEM (standard error of the mean) of n (number of experiments in duplicate).

The test system of assay [2] is NK cells. Nature of the assay: NK IgG-induced IFN-γ assay. The class given is cell-based, human. The note with it: immobilized IgG and IL-2 stimulation; 7 donors. The text has this: NK cells from healthy donors were isolated from buffy coat blood by negative selection using the RosetteSep NK cell enrichment cocktail (Stem Cell Technologies, Vancouver, BC) prior to Ficoll-Hypaque (Fisher Scientific Co LLC, PA) density gradient centrifugation following the manufacturers' instructions. CD56+NK cells were isolated to ˜85% purity, as determined by flow cytometry (BD Biosciences, CA).
NK IgG-induced Interferon-Gamma (IFN-γ) Assay: Ninety-six-well flat-bottom plates were coated with 100 µg/mL of human IgG (Sigma) overnight at 4° C. The next day, unbound IgG was washed away with cold 1×PBS. NK cells were then plated in the IgG-coated 96-well plates at 2×10^5 cells per well in 180 μL RPMI-1640 Media and 10 ng/mL of rhIL-2 (R & D Systems, MN) was added. Test compounds were added in a volume of 20 μL DMSO. Final concentrations of test compounds were […]. Final DMSO concentrations were […]. After 48 hours, the supernatants were harvested and analyzed by ELISA for IFN-γ production.
Data used to determine the test compounds to enhance NK cell IFN-γ production in response to immobilized IgG and rhIL-2 stimulation was analyzed for each donor using GraphPad Prism v5.0 software.

Assay [3] relates to Human umbilical vascular endothelial cells. Nature of the assay: Growth factor-induced HUVEC invasion assay. The class given is cell-based. The conditions noted are these: for IC50: Homo sapiens; for VEGF-, bFGF-, and HGF-induced HUVEC invasion: dose-dependent. How it is done: Human Umbilical Vascular Endothelial Cell Invasion Assay: In the HUVEC invasion assay, the concentration of human fibronectin is optimized to provide a suitable protein structure for adherent cells to attach to the membrane and allow free migration in response to an angiogenic stimulus (e.g. VEGF, bFGF, or HGF) in the lower chamber of the insert plate. HUVECs were starved in 0.1% BSA EBM2 medium for 6 hours after washing with the same medium 3 times. The cells were then trypsinized and centrifuged to remove the remaining trypsin. Then ˜0.5 to 1×10^6 cells in 125 μL/well and 125 μL of 8× serially diluted compounds (10, 1, 0.1, 0.01, 0.001 μM) were added to the upper chamber of the BD Falcon 24-well and 96-well insert plates in duplicate and incubated for ˜1 to 2 hours. (The plates contain a fluorescence blocking, microporous [3.0 μm pore size] PET membrane that has been evenly coated with human fibronectin.) Seven hundred fifty microliters of a 1.33× stock solution of VEGF (final concentration of 25 ng/mL), bFGF (final concentration of 10 ng/mL), or HGF (final concentration of 25 ng/mL) were then added to the lower chamber. The cells were incubated for 22±1 hours at 37° C. The migrated cells were stained with calcein AM at 4 μg/mL in HBSS containing 2% FBS, using 500 µL/well in 24-well plates and 200 µL/well in 96-well plates. The plates were incubated at 37° C. for 90 minutes and read in a fluorescence plate reader.
The percentage inhibition of cell proliferation, tube formation, migration, and invasion was calculated by subtracting the result for unstimulated DMSO control from test sample results, averaging all replicates, and normalizing to the growth factor-stimulated DMSO control (0% inhibition). The IC50 values were calculated by using GraphPad Prism 5.0.

Assay [4] relates to DoHH2 FL cells. As to the kind of experiment: 3 day 3H-thymidine incorporation assay. Type of assay: cell-based. A general note: Incorporation of labelled thymidine or its analogues reports DNA synthesis.
The test system of assay [5] is NCI-H929 Multiple Myeloma xenograft. Nature of the assay: NCI-H929 Multiple Myeloma xenograft model. Type of assay: in vivo, mouse. The conditions noted are these: for tumor growth inhibition: day 19; for H929 tumor growth: mouse, in vivo. Here is the method:
Compounds I, I-R, and I-S were tested in NCI-H929 Multiple Myeloma xenograft model, and the results are depicted in FIG. 24.

Assay [6] concerns U87 Glioblastoma xenograft. Nature of the assay: U87 Glioblastoma xenograft model. Type of assay: in vivo, mouse. The note with it: for U87 tumor growth: 30 mg/kg qd. How it is done:
Compounds I, I-R, and I-S were tested in U87 Glioblastoma xenograft model, and the results are depicted in FIG. 25.

The mark [7] stands for this setting: read-out: GM-CSF production IC50.
Where [8] appears, read: read-out: IL-1β production IC50.
Setting [9] is: read-out: MIP-1α production IC50.
The mark [10] stands for this setting: read-out: MIP-1β production IC50.
[11] abbreviates: read-out: TNF-α production IC50.
Where [12] appears, read: Endothelial cell, read-out: HGF-induced invasion IC50 Values.
The mark [13] stands for this setting: Endothelial cell, read-out: VEGF-induced invasion IC50 Values.
Where [14] appears, read: Endothelial cell, read-out: bFGF-induced invasion IC50 Values.
The mark [15] stands for this setting: HUVEC, read-out: IC50, HUVEC invasion (growth factor not given).
Where [16] appears, read: HUVEC, read-out: IC50 for inhibition of VEGF induced HUVEC invasion.

Turning to `O=C1CC[C@H](N2Cc3c(OCc4ccc(CN5CCOCC5)cc4)cccc3C2=O)C(=O)N1` [Compound I-S, (S)-3-(4-((4-(morpholinomethyl)benzyl)oxy)-1-oxoisoindolin-2-yl)piperidine-2,6-dione], the “IL-10 (% of control)” value in assay [1] is 379 % of control. Further, in assay [1], the “MCP-1 (% of control)” value is reported as 233 % of control. Besides, the “RANTES (% of control)” value in assay [1] is given as 153 % of control. Also, the IC50 (as a rule, the point on the concentration scale where inhibition reaches its midpoint) is 2.2 nM in assay [1] (setting [7]); 0.46 nM in assay [1] (setting [8]); 3.8 nM in assay [1] (read-out: IL-6 production IC50); above 10000 nM in assay [1] (read-out: IL-8 production IC50); 2.1 nM in assay [1] (read-out: MDC production IC50); 28 nM in assay [1] (setting [9]). Also, the 50% inhibitory concentration (IC50) in assay [1] (setting [10]) was above 10000 nM; in assay [1] (setting [11]), 0.59 nM; in assay [3] (setting [12]) it was 19 nM; in assay [3] (setting [13]), below 0.1 nM; in assay [3] (setting [14]) it was below 0.1 nM; in assay [3] (setting [15]), below 0.1 nM. For the same compound, the 50% inhibitory concentration (IC50) in assay [3] (setting [16]) is below 0.3 nM; in assay [4] (Homo sapiens, DOHH-2, 72 h, 3 day, read-out: anti-proliferative IC50), 40 nM. Moreover, in assay [2], the “NK cell IFN-γ production” value is “slightly more active than compound I”. Besides, the “VEGF-, bFGF-, and HGF-induced HUVEC invasion” value in assay [3] is given as “significantly inhibited”. Moreover, the “combination effect, fractional product method” value in assay [4] (combined with Rituxan) was “synergistic manner”. Moreover, the tumor growth inhibition in assay [5] (0.3 mg/kg) is 34%; in assay [5] (3 mg/kg), 67%; in assay [5] (30 mg/kg), 87%; in assay [6] (15 mg/kg, day 43, another study), “about 47%”; in assay [6] (30 mg/kg, day 48), “about 60%”. In addition, in assay [5], the H929 tumor growth entry is given as “significantly inhibited H929 tumor growth in a dose-dependent manner”. Besides, in assay [6], the U87 tumor growth result was “significantly inhibited U87 tumor growth”.

Turning to `O=C1CC[C@@H](N2Cc3c(OCc4ccc(CN5CCOCC5)cc4)cccc3C2=O)C(=O)N1` [Compound I-R, (R)-3-(4-((4-(morpholinomethyl)benzyl)oxy)-1-oxoisoindolin-2-yl)piperidine-2,6-dione], the “IL-10 (% of control)” value in assay [1] was 442 % of control. Besides, the “MCP-1 (% of control)” value in assay [1] is on record as 223 % of control. The “RANTES (% of control)” value in assay [1] is recorded as 151 % of control. The IC50 in assay [1] (setting [7]) was 39 nM; in assay [1] (setting [8]), 6.2 nM; in assay [1] (read-out: IL-6 production IC50), 83 nM; in assay [1] (read-out: IL-8 production IC50) it was above 10000 nM; in assay [1] (read-out: MDC production IC50) it was 12 nM; in assay [1] (setting [10]) it was above 10000 nM. Moreover, the half-inhibitory concentration (IC50) in assay [1] (setting [11]) was 9.5 nM; in assay [3] (setting [12]) it was 450 nM; in assay [3] (setting [13]), below 0.1 nM; in assay [3] (setting [14]), 13 nM; in assay [3] (setting [15]), 13 nM; in assay [3] (setting [16]) it was below 0.3 nM. For the same compound, the “NK cell IFN-γ production” value in assay [2] is on record as “slightly more active than compound I”. In assay [3], the “VEGF-, bFGF-, and HGF-induced HUVEC invasion” value is “significantly inhibited”.

With `O=C1CCC(N2Cc3c(OCc4ccc(CN5CCOCC5)cc4)cccc3C2=O)C(=O)N1` (racemic) [Compound I, 3-(4-((4-(morpholinomethyl)benzyl)oxy)-1-oxoisoindolin-2-yl)piperidine-2,6-dione], the “IL-10 (% of control)” value in assay [1] is given as 372 % of control. Besides, the “MCP-1 (% of control)” value in assay [1] is recorded as 208 % of control. The “RANTES (% of control)” value in assay [1] is listed as 153 % of control. Moreover, the 50% inhibitory concentration (IC50) in assay [1] (setting [7]) was 9.2 nM; in assay [1] (setting [8]), 0.85 nM; in assay [1] (read-out: IL-6 production IC50), 10 nM; in assay [1] (read-out: IL-8 production IC50), above 10000 nM; in assay [1] (read-out: MDC production IC50), 2.6 nM; in assay [1] (setting [9]), 190 nM. For the same compound, the IC50 in assay [1] (setting [10]) is above 10000 nM; in assay [1] (setting [11]), 1.8 nM; in assay [3] (setting [12]), 590 nM; in assay [3] (setting [13]), 0.14 nM; in assay [3] (setting [14]) it was 0.42 nM; in assay [3] (setting [15]), 0.4 nM. Moreover, in assay [3] (setting [16]), the half-maximal inhibitory concentration (IC50) is below 0.3 nM. The “VEGF-, bFGF-, and HGF-induced HUVEC invasion” value in assay [3] is given as “significantly inhibited”. Besides, in assay [5], the H929 tumor growth result is given as “significantly inhibited H929 tumor growth in a dose-dependent manner”. Moreover, the U87 tumor growth result in assay [6] is “significantly inhibited U87 tumor growth”. In assay [6] (30 mg/kg, day 48), this compound gave a tumor growth inhibition above 80%.
